Measured values from DBAASP.
In brackets after ≈: the same amount, converted by molar mass. Several values for one entry are separate records, joined by “and”; a condition that tells them apart may be missing. Identical values can stand only once.

Columns and labels:
Experiment in all cases: ≥ marks a high value that may be exact or a test limit, other limits are often not marked, values filed in µg/mL are converted to µM
[1] = test system: Staphylococcus epidermidis ATCC 12228
[2] = test system: Lacticaseibacillus rhamnosus 1.0911
[3] = test system: Staphylococcus aureus ATCC 43300
[4] = test system: Lacticaseibacillus rhamnosus 8014
[5] = test system: Pseudomonas aeruginosa ATCC 27853
[6] = test system: Escherichia coli O157:H7 CICC 21530
[7] = test system: Salmonella enterica subsp. enterica serovar Choleraesuis CVCC 503
[8] = test system: Staphylococcus aureus ATCC 29213
[9] = test system: Salmonella enterica subsp. enterica serovar Pullorum C79-13
[10] = test system: Streptococcus agalactiae BNCC 185941
[11] = test system: Escherichia coli K88
[12] = test system: Salmonella enterica subsp. enterica serovar Typhimurium ATCC 14028
[13] = test system: Lacticaseibacillus rhamnosus 1.0936
[14] = test system: Pseudomonas aeruginosa PAO1
[15] = test system: Lacticaseibacillus rhamnosus 1.9021
[16] = test system: Salmonella enterica subsp. enterica serovar Enteritidis MH91989
[17] = test system: Staphylococcus aureus ATCC 25923
[18] = test system: Salmonella typhimurium SL1344
[19] = test system: Escherichia coli O157:H7
[20] = test system: Escherichia coli J2210
[21] = test system: Escherichia coli JJ2487
[22] = test system: Escherichia coli JW0013
[23] = test system: Escherichia coli MC1061
[24] = test system: Escherichia coli UB1005
[25] = test system: Staphylococcus aureus ATCC 6538
[26] = test system: Mycobacterium tuberculosis FYX
[27] = test system: Acinetobacter baumannii ATCC 19606
[28] = test system: Acinetobacter baumannii 1
[29] = test system: Enterococcus faecalis
[30] = test system: Candida albicans 08A802
[31] = test system: Staphylococcus epidermidis
[32] = test system: Bacillus subtilis ATCC 6633
[33] = test system: Candida albicans ATCC 10231
[34] = test system: Pseudomonas aeruginosa
[35] = test system: Mycobacterium tuberculosis H37Rv
[36] = test system: Candida albicans 08022710
[37] = test system: Escherichia coli ATCC 35218
[38] = test system: Escherichia coli ATCC 25922
[39] = test system: Candida albicans ATCC 2002
[40] = test system: Escherichia coli
[41] = test system: Mycobacterium tuberculosis WXY
[42] = test system: Mycobacterium tuberculosis CAS3
[43] = test system: Staphylococcus aureus 08A875
[44] = test system: Porphyromonas gingivalis W50
[45] = test system: Staphylococcus aureus ATCC 49525

CC(C)C[C@H](NC(=O)CNC(=O)[C@H](CCCCN)NC(=O)[C@H](Cc1c[nH]c2ccccc12)NC(=O)[C@H](CCCCN)NC(=O)CNC(=O)[C@H](CC(C)C)NC(=O)[C@H](CC(C)C)NC(=O)[C@@H](N)CCCCN)C(=O)N[C@@H](CC(C)C)C(=O)N[C@@H](CCCCN)C(N)=O [KLLGKWKGLLK]
MIC [1]: > 128 µM
MIC [2]: ≥ 128 µM
MIC [3]: > 128 µM
MIC [4]: ≥ 128 µM
MIC [5]: 32 µM (≈ 41 µg/mL)
MIC [6]: ≥ 128 µM
MIC [7]: ≥ 128 µM
MIC [8]: > 128 µM
MIC [9]: 8 µM (≈ 10.3 µg/mL)
MIC [10]: ≥ 128 µM
MIC [11]: 4 µM (≈ 5.13 µg/mL)
MIC [12]: 128 µM (≈ 164 µg/mL)
MIC [13]: ≥ 128 µM
MIC [14]: 16 µM (≈ 20.5 µg/mL)
MIC [15]: ≥ 128 µM

CC[C@H](C)[C@H](NC(=O)[C@H](CCCN=C(N)N)NC(=O)[C@H](CCCN=C(N)N)NC(=O)[C@@H]1CCCN1C(=O)[C@@H]1CCCN1C(=O)[C@H](CCCN=C(N)N)NC(=O)[C@@H]1CCCN1C(=O)[C@H](CCCN=C(N)N)NC(=O)[C@@H]1CCCN1C(=O)[C@H](CC(C)C)NC(=O)[C@H](Cc1ccc(O)cc1)NC(=O)[C@@H]1CCCN1C(=O)[C@H](CCCCN)NC(=O)[C@H](CCCCN)NC(=O)[C@H](CC(=O)O)NC(=O)[C@@H](N)C(C)C)C(=O)N[C@@H](Cc1ccc(O)cc1)C(=O)N[C@@H](CC(N)=O)C(=O)N[C@@H](CCCN=C(N)N)C(N)=O [VDKKPYLPRPRPPRRIYNR]
MIC [16]: 0.248 µM (≈ 0.6 µg/mL)
MIC [17]: 9.34 µM (≈ 22.6 µg/mL)
MIC [18]: 0.248 µM (≈ 0.6 µg/mL)
MIC [19]: 0.991 µM (≈ 2.4 µg/mL)
MIC [20]: 0.161 µM (≈ 0.39 µg/mL)
MIC [21]: 0.248 µM (≈ 0.6 µg/mL)
MIC [22]: 0.248 µM (≈ 0.6 µg/mL)
MIC [23]: 0.124 µM (≈ 0.3 µg/mL)
MIC [24]: 1.03 µM (≈ 2.5 µg/mL)
MIC [14]: 13.2 µM (≈ 32 µg/mL)

CC(C)C[C@H](NC(=O)[C@H](CC(C)C)NC(=O)[C@H](CCCCN)NC(=O)[C@H](CCCCN)NC(=O)[C@@H](NC(=O)[C@H](C)N)C(C)C)C(=O)N[C@@H](CCCN=C(N)N)C(=O)N[C@@H](Cc1c[nH]c2ccccc12)C(=O)N[C@@H](Cc1c[nH]c2ccccc12)C(=O)N[C@@H](CO)C(=O)N[C@@H](CCCN=C(N)N)C(=O)N[C@@H](Cc1c[nH]c2ccccc12)C(=O)N[C@@H](Cc1c[nH]c2ccccc12)C(=O)N[C@@H](CCCCN)C(=O)N[C@@H](CCCCN)C(=O)O [AVKKLLRWWSRWWKK]
MIC [25]: > 96.5 µM
MIC [17]: > 96.5 µM
MIC [26]: 9.05 µM (≈ 18.8 µg/mL)
MIC [5]: > 96.5 µM
MIC [27]: 72.4 µM (≈ 150 µg/mL)
MIC [28]: ≥ 96.5 µM
MIC [29]: ≥ 72.4 µM
MIC [30]: ≥ 72.4 µM
MIC [31]: ≥ 96.5 µM
MIC [32]: ≥ 72.4 µM
MIC [33]: > 96.5 µM
MIC [34]: > 96.5 µM
MIC [35]: 9.05 µM (≈ 18.8 µg/mL)
MIC [36]: ≥ 96.5 µM
MIC [37]: ≥ 96.5 µM
MIC [38]: > 96.5 µM
MIC [39]: ≥ 96.5 µM
MIC [40]: > 96.5 µM and 72.4 µM
MIC [41]: 4.53 µM (≈ 9.38 µg/mL)
MIC [42]: 9.05 µM (≈ 18.8 µg/mL)
MIC [43]: ≥ 72.4 µM

CC[C@H](C)[C@H](NC(=O)[C@H](CCCCN)NC(=O)CN)C(=O)N[C@H](C(=O)N[C@@H](CCCCN)C(=O)N[C@@H](CC(C)C)C(=O)N[C@@H](CCCCN)C(=O)N[C@@H](C)C(=O)N[C@@H](CO)C(=O)N[C@@H](CC(C)C)C(=O)N[C@@H](CCCCN)C(=O)N[C@@H](CC(C)C)C(=O)N[C@@H](CC(C)C)C(N)=O)[C@@H](C)CC [GKIIKLKASLKLL]
MIC [44]: ≥ 70.2 µM
MIC [45]: ≥ 58.5 µM
MIC [14]: 5.61 µM and 7.3 µM
